These are literature values, as cited in patent US9889198B2 (KemPharm, Inc., priority 2010, dated 2018).

The target in one data set is T1, 5-HT1A receptor (Homo sapiens, UniProt P08908).
T1 sequence (P08908 1-422): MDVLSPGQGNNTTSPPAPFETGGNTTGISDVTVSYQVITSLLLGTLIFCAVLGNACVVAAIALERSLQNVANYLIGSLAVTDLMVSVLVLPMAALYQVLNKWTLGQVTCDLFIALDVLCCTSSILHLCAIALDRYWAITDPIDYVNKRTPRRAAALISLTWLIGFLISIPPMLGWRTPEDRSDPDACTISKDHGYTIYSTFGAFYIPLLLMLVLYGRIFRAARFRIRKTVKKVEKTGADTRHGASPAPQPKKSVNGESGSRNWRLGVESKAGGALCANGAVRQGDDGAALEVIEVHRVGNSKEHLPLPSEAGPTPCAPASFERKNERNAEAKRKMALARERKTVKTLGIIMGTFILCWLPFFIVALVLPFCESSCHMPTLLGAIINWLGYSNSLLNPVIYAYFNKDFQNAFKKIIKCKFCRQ
Particulars: relative to quetiapine.

For a further data set, the target named is human NET (Homo sapiens, UniProt P23975). The following applies: relative to quetiapine.
The next data set has as its system leptin release. Particulars: chronic oral administration, 6 weeks.

Chain of human NET (P23975 whole entry): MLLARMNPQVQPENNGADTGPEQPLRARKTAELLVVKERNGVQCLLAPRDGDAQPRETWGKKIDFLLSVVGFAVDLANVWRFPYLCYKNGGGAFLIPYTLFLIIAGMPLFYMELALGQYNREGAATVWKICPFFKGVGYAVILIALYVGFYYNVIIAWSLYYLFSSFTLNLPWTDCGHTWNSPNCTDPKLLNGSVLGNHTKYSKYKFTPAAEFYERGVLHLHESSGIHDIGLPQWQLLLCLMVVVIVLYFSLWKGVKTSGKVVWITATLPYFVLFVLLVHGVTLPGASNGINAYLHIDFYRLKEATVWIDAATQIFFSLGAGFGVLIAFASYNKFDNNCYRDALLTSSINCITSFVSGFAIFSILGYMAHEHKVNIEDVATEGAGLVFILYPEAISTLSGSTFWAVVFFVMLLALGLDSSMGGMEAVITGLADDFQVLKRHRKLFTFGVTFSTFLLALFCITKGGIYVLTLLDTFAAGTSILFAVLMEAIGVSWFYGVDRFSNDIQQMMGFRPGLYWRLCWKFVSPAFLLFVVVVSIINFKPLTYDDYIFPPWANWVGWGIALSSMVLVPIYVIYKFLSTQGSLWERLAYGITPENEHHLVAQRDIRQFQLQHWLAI

Regarding `c1ccc2c(c1)N=C(N1CCNCC1)c1ccccc1S2` [N-desalkyl-quetiapine], the “more potent than quetiapine at the 5-HT1A receptor” value at 5-HT1A receptor is 10 fold. For the same compound, the “higher avidity for inhibiting human NET than quetiapine” value on human NET is recorded as “about 100 fold”.

In the case of `CCCC(CCC)C(=O)O` [Valproic acid, 2-propylpentanoic acid], where the note is “acute mania patients”, the “response rate in acute mania” value is “around 50%”. In addition, the “response rate in bipolar depression” value (bipolar depression) was around 30%. `OCCOCCN1CCN(C2=Nc3ccccc3Sc3ccccc32)CC1` [quetiapine, 2-(2-(4-(dibenzo[b,f][1,4]thiazepin-11-yl)piperazin-1-yl)ethoxy)ethanol]: the “increase in leptin release” value in the data set with leptin release is reported as “about 37%”.
